Measurements from patent publication EP0834302A1, “Compositions comprising glutathione liposomes” (Boehringer Ingelheim Limited, priority 1996, dated 1998).

Columns and labels:
[1] = system: UVB induced skin erythema; conditions: applied topically in a simple oil-in-water emulsion or as a gel preparation; Int. J. Cos. Sci. 17:91-103, 1995; cited from earlier work
[2] = Depth of glutathione penetration into the skin: tape stripping with DPPH anti-free radical assay
Procedure: The depth of glutathione penetration into the skin was determined by comparing two different galenic forms: free glutathione in solution (FG) and glutathione encapsulated in a liposome (LG). Since glutathione is a highly reactive free radical scavenger, its presence even in small quantities can be detected by spectroscopic methods.
Gluthione preparations are applied to the skin, and tape strippings are taken after some fixed interval of time. The tape strippings are assayed for anti-free radical activity by DPPH (1,1 Diphenyl-2-picrylhydrazyl) at 8.76 x 10^-3 % (w/v) in methanol) colouration/ discolouration tests (Kim et al. Proc. 17th IFSCC Congress (Yokohama), Vol. 1: 3-14, 1994). […]
On the arms of each volunteer, the 3 test sites were determined in a random way: one site for application of water (negative control), one for application of free glutathione (FG) and one for application of liposome encapsulated glutathione (LG). […]
5 tape strippings were carried out on the control sites after 2µl/cm^2 application of distilled water and a light massage. […] The change in colour was measured on a spectrophotometer at 517nm.
Each test solution was then applied to the designated sites (2µl/cm^2) by slight massaging and left to dry for 30 minutes. […] Colour changes were recorded as described above.

| Structure (SMILES) | inhibiting UVB induced skin erythema [1] | Tape strips containing residual scavenger activity, Mean value ([2]; in vivo) | depth of penetration ([2]; result in words, presence of DPPH reactive substances on successive strips) |
| --- | --- | --- | --- |
| N[C@@H](CCC(=O)N[C@@H](CS)C(=O)NCC(=O)O)C(=O)O [Glutathione] | ineffective | – | – |
| N[C@@H](CCC(=O)N[C@@H](CS)C(=O)NCC(=O)O)C(=O)O [FG, Reduced glutathione] | – | 1.3 | absence of significant penetration |
